Source: ChEMBL document CHEMBL3885881, “DrugMatrix”

Species: Rattus norvegicus
Assay: DrugMatrix - Regimen: Daily Repeat
Format: toxicity, organism-based, Sprague-Dawley
Set-up: regimen Daily Repeat, gender Male, age 6-8 weeks
Conditions: in vivo, po, route oral GAVAGE, vehicle .5 % CMC; for URIC ACID / ALANINE AMINOTRANSFERASE / ALBUMIN / ALKALINE PHOSPHATASE / ASPARTATE AMINOTRANSFERASE / BLOOD UREA NITROGEN / CARBON DIOXIDE / CHLORIDE / CHOLESTEROL / CREATINE PHOSPHOKINASE / CREATININE / GLUCOSE / LACTATE DEHYDROGENASE / LIPASE / PHOSPHORUS / POTASSIUM / SODIUM / TOTAL BILIRUBIN / TOTAL PROTEIN: tissue Plasma; for ABSOLUTE BASOPHIL / ABSOLUTE EOSINOPHIL / ABSOLUTE LYMPHOCYTE / ABSOLUTE MONOCYTE / ABSOLUTE SEGMENTED NEUTROPHIL / BASOPHIL / EOSINOPHIL / ERYTHROCYTE COUNT / HEMATOCRIT / HEMOGLOBIN / LEUKOCYTE COUNT / LYMPHOCYTE / MEAN CORPUSCULAR HEMOGLOBIN / MEAN CORPUSCULAR HEMOGLOBIN CONCENTRATION / MEAN CORPUSCULAR VOLUME / MONOCYTE / NEUTROPHIL / NUCLEATED RED BLOOD CELLS / PLATELET COUNT: tissue Blood
[1] = 10 mg/kg, 120 h, dose level Low, time 5 day
[2] = 400 mg/kg, 72 h, dose level High, time 3 day
[3] = 400 mg/kg, 120 h, dose level High, time 5 day

CC(C)(C#N)c1cc(Cn2cncn2)cc(C(C)(C)C#N)c1 [ANASTROZOLE]
URIC ACID (10 mg/kg, 72 h, dose level Low, time 3 day): 1.33 mg/dL | ABSOLUTE BASOPHIL [1]: 0 CELLS/uL | ABSOLUTE EOSINOPHIL [1]: 0 CELLS/uL | ABSOLUTE LYMPHOCYTE [1]: 12980 CELLS/uL | ABSOLUTE MONOCYTE [1]: 0 CELLS/uL | ABSOLUTE SEGMENTED NEUTROPHIL [1]: 1020 CELLS/uL | BASOPHIL [1]: 0% | EOSINOPHIL [1]: 0% | ERYTHROCYTE COUNT [1]: 5.49 x10E6/uL | HEMATOCRIT [1]: 34.93% | HEMOGLOBIN [1]: 13.93 G/DL | LEUKOCYTE COUNT [1]: 14 x10E3/uL | LYMPHOCYTE [1]: 92.67% | MEAN CORPUSCULAR HEMOGLOBIN [1]: 25.4 pg | MEAN CORPUSCULAR HEMOGLOBIN CONCENTRATION [1]: 39.87 G/DL | MEAN CORPUSCULAR VOLUME [1]: 63.57 fL | MONOCYTE [1]: 0% | NEUTROPHIL [1]: 7.33% | NUCLEATED RED BLOOD CELLS [1]: 0 /100WBC | PLATELET COUNT [1]: 1087.67 x10E3/uL | ALANINE AMINOTRANSFERASE [1]: 48 u/L | ALBUMIN [1]: 4.1 G/DL | ALKALINE PHOSPHATASE [1]: 364.67 u/L | ASPARTATE AMINOTRANSFERASE [1]: 77.33 u/L | BLOOD UREA NITROGEN [1]: 18.33 mg/dL | CARBON DIOXIDE [1]: 26 mmol/L | CHLORIDE [1]: 103 MEQ/L | CHOLESTEROL [1]: 60.67 mg/dL | CREATINE PHOSPHOKINASE [1]: 224.33 u/L | CREATININE [1]: 0.14 mg/dL | GLUCOSE [1]: 146 mg/dL | LACTATE DEHYDROGENASE [1]: 164 u/L | LIPASE [1]: 9.33 u/L | PHOSPHORUS [1]: 13.6 mg/dL | POTASSIUM [1]: 7.31 MEQ/L | SODIUM [1]: 142.23 MEQ/L | TOTAL BILIRUBIN [1]: 0.2 mg/dL | TOTAL PROTEIN [1]: 5.87 G/DL | URIC ACID [1]: 1.9 mg/dL | ABSOLUTE BASOPHIL [2]: 0 CELLS/uL | ABSOLUTE EOSINOPHIL [2]: 0 CELLS/uL | ABSOLUTE LYMPHOCYTE [2]: 16859 CELLS/uL | ABSOLUTE MONOCYTE [2]: 135.33 CELLS/uL | ABSOLUTE SEGMENTED NEUTROPHIL [2]: 1372.33 CELLS/uL | BASOPHIL [2]: 0% | EOSINOPHIL [2]: 0% | ERYTHROCYTE COUNT [2]: 5.62 x10E6/uL | HEMATOCRIT [2]: 34.7% | HEMOGLOBIN [2]: 13.6 G/DL | LEUKOCYTE COUNT [2]: 18.37 x10E3/uL | LYMPHOCYTE [2]: 91.67% | MEAN CORPUSCULAR HEMOGLOBIN [2]: 24.17 pg | MEAN CORPUSCULAR HEMOGLOBIN CONCENTRATION [2]: 39.17 G/DL | MEAN CORPUSCULAR VOLUME [2]: 61.7 fL | MONOCYTE [2]: 0.67% | NEUTROPHIL [2]: 7.67% | NUCLEATED RED BLOOD CELLS [2]: 0.33 /100WBC | PLATELET COUNT [2]: 1228.33 x10E3/uL | ALANINE AMINOTRANSFERASE [2]: 89 u/L | ALBUMIN [2]: 4.27 G/DL | ALKALINE PHOSPHATASE [2]: 433 u/L | ASPARTATE AMINOTRANSFERASE [2]: 126 u/L | BLOOD UREA NITROGEN [2]: 17.33 mg/dL | CARBON DIOXIDE [2]: 28.33 mmol/L | CHLORIDE [2]: 98.33 MEQ/L | CHOLESTEROL [2]: 69.33 mg/dL | CREATINE PHOSPHOKINASE [2]: 255 u/L | CREATININE [2]: 0.3 mg/dL | GLUCOSE [2]: 143 mg/dL | LACTATE DEHYDROGENASE [2]: 237 u/L | LIPASE [2]: 11.33 u/L | PHOSPHORUS [2]: 11.7 mg/dL | POTASSIUM [2]: 7.49 MEQ/L | SODIUM [2]: 141.93 MEQ/L | TOTAL BILIRUBIN [2]: 0.17 mg/dL | TOTAL PROTEIN [2]: 5.87 G/DL | URIC ACID [2]: 1.83 mg/dL | ABSOLUTE BASOPHIL [3]: 0 CELLS/uL | ABSOLUTE EOSINOPHIL [3]: 0 CELLS/uL | ABSOLUTE LYMPHOCYTE [3]: 11924.33 CELLS/uL | ABSOLUTE MONOCYTE [3]: 19.67 CELLS/uL | ABSOLUTE SEGMENTED NEUTROPHIL [3]: 1989.33 CELLS/uL | BASOPHIL [3]: 0% | EOSINOPHIL [3]: 0% | ERYTHROCYTE COUNT [3]: 5.98 x10E6/uL | HEMATOCRIT [3]: 35.47% | HEMOGLOBIN [3]: 14.6 G/DL | LEUKOCYTE COUNT [3]: 13.93 x10E3/uL | LYMPHOCYTE [3]: 82% | MEAN CORPUSCULAR HEMOGLOBIN [3]: 24.43 pg | MEAN CORPUSCULAR HEMOGLOBIN CONCENTRATION [3]: 41.17 G/DL | MEAN CORPUSCULAR VOLUME [3]: 59.37 fL | MONOCYTE [3]: 0.33% | NEUTROPHIL [3]: 17.67% | NUCLEATED RED BLOOD CELLS [3]: 0.67 /100WBC | PLATELET COUNT [3]: 1447 x10E3/uL | ALANINE AMINOTRANSFERASE [3]: 478.67 u/L | ALBUMIN [3]: 4.53 G/DL | ALKALINE PHOSPHATASE [3]: 622.67 u/L | ASPARTATE AMINOTRANSFERASE [3]: 1130.67 u/L | BLOOD UREA NITROGEN [3]: 22 mg/dL | CARBON DIOXIDE [3]: 21.33 mmol/L | CHLORIDE [3]: 99.33 MEQ/L | CHOLESTEROL [3]: 88.33 mg/dL | CREATINE PHOSPHOKINASE [3]: 445.67 u/L | CREATININE [3]: 0.46 mg/dL | GLUCOSE [3]: 115 mg/dL | LACTATE DEHYDROGENASE [3]: 826.67 u/L | LIPASE [3]: 14.33 u/L | PHOSPHORUS [3]: 11.97 mg/dL | POTASSIUM [3]: 6.47 MEQ/L | SODIUM [3]: 142.23 MEQ/L | TOTAL BILIRUBIN [3]: 0.17 mg/dL | URIC ACID [3]: 2.23 mg/dL
